Test results as given in ChEMBL document CHEMBL5653631, “A Potent and Selective ULK1 Inhibitor Suppresses Autophagy and Sensitizes Cancer Cells to Nutrient Stress” (iScience, 2018).

What was measured:
[1] = biological target: Insulin receptor (Homo sapiens) (UniProt P06213); experiment: Inhibition of human recombinant INSR at 40 nM related to control ULK1
[2] = biological target: Dual specificity mitogen-activated protein kinase kinase 1 (Homo sapiens) (UniProt Q02750); experiment: Inhibition of human recombinant MAP2K1 at 40 nM in presence of ATP by radiometric assay relative to control
Sequence of Dual specificity mitogen-activated protein kinase kinase 1 (Homo sapiens) (Q02750 whole entry): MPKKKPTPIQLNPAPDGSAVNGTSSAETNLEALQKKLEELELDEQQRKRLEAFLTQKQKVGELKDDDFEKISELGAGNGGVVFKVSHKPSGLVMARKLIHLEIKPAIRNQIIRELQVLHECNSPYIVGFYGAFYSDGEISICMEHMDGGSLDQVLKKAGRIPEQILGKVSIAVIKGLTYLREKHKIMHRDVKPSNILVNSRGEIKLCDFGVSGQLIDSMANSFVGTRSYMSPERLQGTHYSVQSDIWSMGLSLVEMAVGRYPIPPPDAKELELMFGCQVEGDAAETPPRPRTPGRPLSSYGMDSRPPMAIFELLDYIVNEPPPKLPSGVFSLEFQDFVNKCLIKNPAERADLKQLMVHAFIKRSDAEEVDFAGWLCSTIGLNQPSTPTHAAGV

[3] = biological target: Dual specificity protein kinase CLK1 (Homo sapiens) (UniProt P49759); experiment: Inhibition of human recombinant CLK1 at 40 nM related to control ULK1
Sequence of Dual specificity protein kinase CLK1 (Homo sapiens) (P49759 whole entry, looked up): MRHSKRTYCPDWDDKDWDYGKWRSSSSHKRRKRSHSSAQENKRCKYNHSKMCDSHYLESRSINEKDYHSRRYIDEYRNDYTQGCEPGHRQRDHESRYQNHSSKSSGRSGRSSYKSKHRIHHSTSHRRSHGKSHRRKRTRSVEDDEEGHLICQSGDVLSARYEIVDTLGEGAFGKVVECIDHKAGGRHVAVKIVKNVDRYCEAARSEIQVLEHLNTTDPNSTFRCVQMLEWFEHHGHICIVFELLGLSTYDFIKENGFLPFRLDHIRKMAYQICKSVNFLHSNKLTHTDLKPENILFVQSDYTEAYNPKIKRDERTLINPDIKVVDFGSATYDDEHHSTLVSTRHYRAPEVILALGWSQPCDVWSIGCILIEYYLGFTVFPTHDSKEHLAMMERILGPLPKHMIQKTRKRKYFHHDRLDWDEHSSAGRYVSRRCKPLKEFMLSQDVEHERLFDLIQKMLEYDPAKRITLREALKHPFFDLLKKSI

[4] = biological target: T1, Myotonin-protein kinase (Homo sapiens) (UniProt Q09013); experiment: Inhibition of human recombinant DMPK1 at 15 nM related to control ULK1
T1 sequence (whole entry): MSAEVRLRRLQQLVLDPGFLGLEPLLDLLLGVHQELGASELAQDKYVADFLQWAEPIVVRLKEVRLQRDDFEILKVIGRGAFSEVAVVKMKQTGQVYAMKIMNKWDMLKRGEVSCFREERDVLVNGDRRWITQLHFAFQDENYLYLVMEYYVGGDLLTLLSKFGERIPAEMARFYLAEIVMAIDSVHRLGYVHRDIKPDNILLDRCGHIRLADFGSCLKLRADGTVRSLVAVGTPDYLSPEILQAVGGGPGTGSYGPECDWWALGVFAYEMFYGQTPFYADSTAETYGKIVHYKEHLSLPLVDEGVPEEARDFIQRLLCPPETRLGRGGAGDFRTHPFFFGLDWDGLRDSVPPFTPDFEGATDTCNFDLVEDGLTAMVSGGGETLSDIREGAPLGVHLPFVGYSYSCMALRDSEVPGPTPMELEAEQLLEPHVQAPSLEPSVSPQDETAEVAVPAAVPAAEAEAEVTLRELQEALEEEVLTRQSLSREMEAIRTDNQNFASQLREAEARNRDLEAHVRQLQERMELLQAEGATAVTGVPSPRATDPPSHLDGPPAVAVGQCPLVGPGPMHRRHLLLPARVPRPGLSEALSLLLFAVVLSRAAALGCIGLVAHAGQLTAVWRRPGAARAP

[5] = biological target: Serine/threonine-protein kinase 33 (Homo sapiens) (UniProt Q9BYT3); experiment: Inhibition of human recombinant STK33 at 15 nM in presence of ATP by radiometric assay relative to control
Sequence of Serine/threonine-protein kinase 33 (Homo sapiens) (Q9BYT3 whole entry, looked up): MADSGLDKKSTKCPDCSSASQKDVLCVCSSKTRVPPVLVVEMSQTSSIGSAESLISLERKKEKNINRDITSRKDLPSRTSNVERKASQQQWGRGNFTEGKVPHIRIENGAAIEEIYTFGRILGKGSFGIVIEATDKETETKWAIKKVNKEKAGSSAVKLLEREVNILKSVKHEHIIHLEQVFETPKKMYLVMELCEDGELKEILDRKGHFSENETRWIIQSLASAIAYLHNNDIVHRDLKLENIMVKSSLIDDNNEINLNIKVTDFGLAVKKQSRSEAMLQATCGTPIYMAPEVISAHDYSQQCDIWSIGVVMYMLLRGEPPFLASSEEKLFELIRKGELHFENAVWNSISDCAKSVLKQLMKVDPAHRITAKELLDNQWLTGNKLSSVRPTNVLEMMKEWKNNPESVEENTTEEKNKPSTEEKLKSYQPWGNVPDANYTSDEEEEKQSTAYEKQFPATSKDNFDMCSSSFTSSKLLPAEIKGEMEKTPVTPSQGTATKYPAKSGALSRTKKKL

Homo sapiens = species: Homo sapiens; experiment: Inhibition of human recombinant KHS1 at 15 nM in presence of ATP by radiometric assay relative to control
[6] = biological target: T2, Receptor-interacting serine/threonine-protein kinase 1 (Homo sapiens) (UniProt Q13546); experiment: Inhibition of human recombinant RIPK1 at 15 nM related to control ULK1
T2 sequence (whole entry): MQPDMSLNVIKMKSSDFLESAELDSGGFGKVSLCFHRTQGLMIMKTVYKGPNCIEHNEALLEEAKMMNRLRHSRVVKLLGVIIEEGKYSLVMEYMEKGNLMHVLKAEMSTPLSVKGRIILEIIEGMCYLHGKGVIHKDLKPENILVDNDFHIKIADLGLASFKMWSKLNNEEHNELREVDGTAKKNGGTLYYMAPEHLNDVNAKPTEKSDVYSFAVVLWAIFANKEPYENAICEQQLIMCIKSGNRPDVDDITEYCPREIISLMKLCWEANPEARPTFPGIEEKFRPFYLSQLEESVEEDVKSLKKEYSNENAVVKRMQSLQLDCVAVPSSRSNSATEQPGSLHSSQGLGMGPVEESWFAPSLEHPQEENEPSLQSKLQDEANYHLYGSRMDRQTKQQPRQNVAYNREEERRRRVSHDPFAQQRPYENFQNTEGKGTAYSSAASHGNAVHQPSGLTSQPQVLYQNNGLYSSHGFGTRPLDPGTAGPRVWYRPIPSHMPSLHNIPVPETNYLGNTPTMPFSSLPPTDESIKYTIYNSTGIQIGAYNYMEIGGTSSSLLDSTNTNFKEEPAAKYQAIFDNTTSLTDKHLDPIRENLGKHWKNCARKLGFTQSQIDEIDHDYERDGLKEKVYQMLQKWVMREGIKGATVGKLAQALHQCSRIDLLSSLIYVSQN

[7] = biological target: T3, MAP/microtubule affinity-regulating kinase 4 (Homo sapiens) (UniProt Q96L34); experiment: Inhibition of human recombinant MARK4 at 15 nM in presence of ATP by radiometric assay relative to control
T3 sequence (whole entry): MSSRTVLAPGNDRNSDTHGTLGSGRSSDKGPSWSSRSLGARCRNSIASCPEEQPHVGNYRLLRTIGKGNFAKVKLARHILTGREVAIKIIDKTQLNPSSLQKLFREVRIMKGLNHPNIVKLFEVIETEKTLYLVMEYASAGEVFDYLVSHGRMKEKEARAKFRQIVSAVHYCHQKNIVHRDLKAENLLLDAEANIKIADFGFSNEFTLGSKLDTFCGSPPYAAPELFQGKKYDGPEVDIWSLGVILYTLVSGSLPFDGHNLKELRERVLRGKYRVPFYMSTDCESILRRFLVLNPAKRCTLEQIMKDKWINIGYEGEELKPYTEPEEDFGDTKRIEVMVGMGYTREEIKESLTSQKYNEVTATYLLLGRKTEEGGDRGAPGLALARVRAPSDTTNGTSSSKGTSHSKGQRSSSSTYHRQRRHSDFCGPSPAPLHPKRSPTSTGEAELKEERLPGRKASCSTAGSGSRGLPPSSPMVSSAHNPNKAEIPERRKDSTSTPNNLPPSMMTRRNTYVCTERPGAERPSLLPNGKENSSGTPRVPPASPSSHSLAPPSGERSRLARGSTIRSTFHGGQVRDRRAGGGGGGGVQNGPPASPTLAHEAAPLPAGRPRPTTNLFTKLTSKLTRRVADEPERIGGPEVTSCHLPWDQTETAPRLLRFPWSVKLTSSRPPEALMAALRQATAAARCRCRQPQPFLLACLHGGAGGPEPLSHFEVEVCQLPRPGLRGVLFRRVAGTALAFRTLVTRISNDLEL

[8] = biological target: Receptor-interacting serine/threonine-protein kinase 2 (Homo sapiens) (UniProt O43353); experiment: Inhibition of human recombinant RIPK2 at 500 nM in presence of ATP by radiometric assay relative to control
Sequence of Receptor-interacting serine/threonine-protein kinase 2 (Homo sapiens) (O43353 whole entry): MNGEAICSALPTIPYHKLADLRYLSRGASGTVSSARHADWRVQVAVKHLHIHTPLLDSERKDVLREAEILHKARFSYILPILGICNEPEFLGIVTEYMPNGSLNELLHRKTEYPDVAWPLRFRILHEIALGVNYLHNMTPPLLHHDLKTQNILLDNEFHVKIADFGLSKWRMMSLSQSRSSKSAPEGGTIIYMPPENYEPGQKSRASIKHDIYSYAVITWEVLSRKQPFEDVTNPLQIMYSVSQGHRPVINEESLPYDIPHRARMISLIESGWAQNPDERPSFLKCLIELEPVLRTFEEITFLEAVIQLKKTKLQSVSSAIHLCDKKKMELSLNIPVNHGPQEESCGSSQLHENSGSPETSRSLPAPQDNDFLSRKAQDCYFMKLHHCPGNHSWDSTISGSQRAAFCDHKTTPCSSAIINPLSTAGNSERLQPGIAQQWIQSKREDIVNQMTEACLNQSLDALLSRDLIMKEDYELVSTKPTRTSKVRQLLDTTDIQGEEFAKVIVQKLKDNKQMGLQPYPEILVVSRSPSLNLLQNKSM

[9] = biological target: RAC-gamma serine/threonine-protein kinase (Homo sapiens) (UniProt Q9Y243); experiment: Inhibition of human recombinant AKT3 at 500 nM related to control ULK1
[10] = biological target: TGF-beta receptor type-2 (Homo sapiens) (UniProt P37173); experiment: Inhibition of human recombinant TGFbR2 at 500 nM in presence of ATP by radiometric assay relative to control
Sequence of TGF-beta receptor type-2 (Homo sapiens) (P37173 whole entry): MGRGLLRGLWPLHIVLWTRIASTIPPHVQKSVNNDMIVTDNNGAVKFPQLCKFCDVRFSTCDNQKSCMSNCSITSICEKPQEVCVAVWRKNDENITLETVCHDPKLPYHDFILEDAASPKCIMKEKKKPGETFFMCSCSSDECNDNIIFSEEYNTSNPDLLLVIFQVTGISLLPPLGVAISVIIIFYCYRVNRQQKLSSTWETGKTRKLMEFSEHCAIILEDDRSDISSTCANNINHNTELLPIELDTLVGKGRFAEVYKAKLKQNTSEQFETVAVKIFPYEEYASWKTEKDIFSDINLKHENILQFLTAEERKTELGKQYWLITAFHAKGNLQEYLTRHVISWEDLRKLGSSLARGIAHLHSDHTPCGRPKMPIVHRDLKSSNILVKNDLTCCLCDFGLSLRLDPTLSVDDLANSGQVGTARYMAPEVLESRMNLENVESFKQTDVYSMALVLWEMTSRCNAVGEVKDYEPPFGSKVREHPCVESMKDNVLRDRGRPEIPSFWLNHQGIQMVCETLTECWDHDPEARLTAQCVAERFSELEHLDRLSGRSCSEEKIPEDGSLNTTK

[11] = biological target: Protein kinase C theta type (Homo sapiens) (UniProt Q04759); experiment: Inhibition of human recombinant PKCt at 500 nM in presence of ATP by radiometric assay relative to control
Sequence of Protein kinase C theta type (Homo sapiens) (Q04759 whole entry, looked up): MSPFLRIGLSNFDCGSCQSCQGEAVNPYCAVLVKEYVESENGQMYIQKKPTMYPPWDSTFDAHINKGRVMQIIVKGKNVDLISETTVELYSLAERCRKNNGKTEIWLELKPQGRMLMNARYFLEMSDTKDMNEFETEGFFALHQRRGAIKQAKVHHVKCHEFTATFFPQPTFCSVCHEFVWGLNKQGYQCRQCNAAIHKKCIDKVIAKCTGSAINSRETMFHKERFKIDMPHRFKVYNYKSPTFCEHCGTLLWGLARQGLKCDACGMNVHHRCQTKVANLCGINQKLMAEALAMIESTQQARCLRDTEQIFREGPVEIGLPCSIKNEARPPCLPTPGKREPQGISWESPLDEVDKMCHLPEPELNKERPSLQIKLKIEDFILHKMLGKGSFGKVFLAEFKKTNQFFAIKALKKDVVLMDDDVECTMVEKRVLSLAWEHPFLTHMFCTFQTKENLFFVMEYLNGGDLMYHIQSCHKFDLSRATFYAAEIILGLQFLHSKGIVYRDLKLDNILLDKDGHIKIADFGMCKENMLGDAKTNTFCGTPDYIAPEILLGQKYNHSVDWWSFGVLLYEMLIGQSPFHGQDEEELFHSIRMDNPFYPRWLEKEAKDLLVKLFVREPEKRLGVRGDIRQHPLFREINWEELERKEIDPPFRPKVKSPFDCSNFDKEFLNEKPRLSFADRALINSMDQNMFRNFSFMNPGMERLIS

Sequence of Insulin receptor (Homo sapiens) (P06213 28-758 limits assumed): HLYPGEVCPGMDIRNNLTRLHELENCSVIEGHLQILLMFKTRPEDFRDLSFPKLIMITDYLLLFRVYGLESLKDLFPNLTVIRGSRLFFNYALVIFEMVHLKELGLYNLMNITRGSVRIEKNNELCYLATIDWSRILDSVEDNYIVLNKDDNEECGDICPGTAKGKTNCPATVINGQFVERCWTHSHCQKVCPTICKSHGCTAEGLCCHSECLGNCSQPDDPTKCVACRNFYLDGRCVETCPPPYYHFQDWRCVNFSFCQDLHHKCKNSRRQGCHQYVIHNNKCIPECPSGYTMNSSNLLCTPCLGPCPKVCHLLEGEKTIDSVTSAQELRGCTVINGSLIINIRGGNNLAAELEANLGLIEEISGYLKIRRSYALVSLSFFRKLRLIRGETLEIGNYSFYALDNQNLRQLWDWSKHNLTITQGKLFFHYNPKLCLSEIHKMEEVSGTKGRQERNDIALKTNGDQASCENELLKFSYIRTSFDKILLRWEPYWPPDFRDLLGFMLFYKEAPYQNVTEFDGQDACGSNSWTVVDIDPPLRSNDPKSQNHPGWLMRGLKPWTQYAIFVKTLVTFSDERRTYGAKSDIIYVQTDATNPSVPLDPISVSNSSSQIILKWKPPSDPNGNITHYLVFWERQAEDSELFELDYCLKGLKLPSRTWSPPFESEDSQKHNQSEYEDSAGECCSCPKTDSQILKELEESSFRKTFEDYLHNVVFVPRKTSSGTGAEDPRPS
Sequence of Insulin receptor (Homo sapiens) (P06213 763-1382 limits assumed): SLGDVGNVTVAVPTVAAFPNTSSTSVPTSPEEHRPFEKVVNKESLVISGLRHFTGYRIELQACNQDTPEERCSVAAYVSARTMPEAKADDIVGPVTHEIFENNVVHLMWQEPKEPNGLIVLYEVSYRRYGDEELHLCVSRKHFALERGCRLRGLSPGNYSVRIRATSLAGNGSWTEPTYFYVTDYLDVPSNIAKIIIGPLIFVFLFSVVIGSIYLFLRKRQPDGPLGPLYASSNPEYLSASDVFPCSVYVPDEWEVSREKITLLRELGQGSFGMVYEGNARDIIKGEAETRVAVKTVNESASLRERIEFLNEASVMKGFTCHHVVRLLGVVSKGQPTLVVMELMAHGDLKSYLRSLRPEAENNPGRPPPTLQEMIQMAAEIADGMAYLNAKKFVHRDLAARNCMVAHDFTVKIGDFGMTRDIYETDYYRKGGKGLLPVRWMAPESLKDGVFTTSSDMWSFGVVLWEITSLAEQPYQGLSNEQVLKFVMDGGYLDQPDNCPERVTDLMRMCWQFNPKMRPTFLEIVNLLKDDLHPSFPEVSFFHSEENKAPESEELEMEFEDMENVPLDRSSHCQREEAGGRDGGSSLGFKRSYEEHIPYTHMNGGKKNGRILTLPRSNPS

O=C(N[C@@H](C1CC1)C(F)(F)F)c1cc(-c2cnn3cc(-c4ccc(F)cc4)cnc23)cs1
fold change (FC) [1]: 0
inhibition [2]: 0%
fold change (FC) [3]: 0.47

CC(C)[C@H](NC(=O)c1cc(-c2cnn3cc(-c4ccc(OCCN5CCCCC5)cc4)cnc23)cs1)C(F)(F)F
fold change (FC) [4]: 0
inhibition [5]: 16%
inhibition (Homo sapiens): 14%
fold change (FC) [6]: 0.01
inhibition [7]: 42%

CNC(=O)c1ccccc1Oc1nc(Nc2cc(OC)c(OC)c(OC)c2)ncc1Br
inhibition [8]: 0%
fold change (FC) [9]: 0.07
inhibition [10]: 2%
inhibition [11]: 0%
